Source: patent publication US9828374B2, “Substituted pyrazino[2,2-a]isoquinoline derivatives” (Hoffmann-La Roche Inc., priority 2014, dated 2017)

Key:
mouse TAAR1 = mouse TAAR1 (Mus musculus (Mouse), UniProt Q923Y8); assay: Radioligand binding assay on mouse TAAR1; settings: for Ki: mouse TAAR1, HEK-293 membranes, first value of the mouse/rat pair
Description: (§1) Construction of TAAR Expression Plasmids and Stably Transfected Cell Lines
(§2) For the construction of expression plasmids the coding sequences of human, rat and mouse TAAR 1 were amplified from genomic DNA essentially as described by Lindemann et al..
(§3) The Expand High Fidelity PCR System (Roche Diagnostics) was used with 1.5 mM Mg^2+ and purified PCR products were cloned into pCR2.1-TOPO cloning vector (Invitrogen) following the instructions of the manufacturer. PCR products were subcloned into the pIRESneo2 vector (BD Clontech, Palo Alto, Calif.), and expression vectors were sequence verified before introduction in cell lines.
(§4) HEK293 cells (ATCC # CRL-1573) were cultured essentially as described by Lindemann et al. (2005). For the generation of stably transfected cell lines HEK293 cells were transfected with the pIRESneo2 expression plasmids containing the TAAR coding sequences (described above) with Lipofectamine 2000 (Invitrogen) according to the instructions of the manufacturer, and 24 hrs post transfection the culture medium was supplemented with 1 mg/ml G418 (Sigma, Buchs, Switzerland). After a culture period of about 10 d clones were isolated, expanded and tested for responsiveness to trace amines (all compounds purchased from Sigma) with the cAMP Biotrak Enzyme immunoassay (EIA) System (Amersham) following the non-acetylation EIA procedure provided by the manufacturer.
Radioligand Binding Assay on Mouse TAAR1
(§5) Membrane Preparation and Radioligand Binding.
(§6) HEK-293 cells stably expressing mouse TAAR1 were maintained at 37° C. and 5% CO2 in DMEM high glucose medium, containing fetal calf serum (10%, heat inactivated for 30 min at 56° C.), penicillin/streptomycin (1%), and 375 μg/ml geneticin (Gibco). Cells were released from culture flasks using trypsin/EDTA, harvested, washed twice with ice-cold PBS (without Ca^2+ and Mg^2+), pelleted at 1,000 rpm for 5 min at 4° C., frozen and stored at −80° C. Frozen pellets were suspended in 20 ml HEPES-NaOH (20 mM, pH 7.4) containing 10 mM EDTA and homogenized with a Polytron (PT 6000, Kinematica) at 14,000 rpm for 20 s. The homogenate was centrifuged at 48,000×g for 30 min at 4° C. Subsequently, the supernatant was removed and discarded, and the pellet resuspended in 20 ml HEPES-NaOH (20 mM, pH 7.4) containing 0.1 mM EDTA using the Polytron (20 s at 14,000 rpm). This procedure was repeated and the final pellet resuspended in HEPES-NaOH containing 0.1 mM EDTA and homogenized using the Polytron. Typically, aliquots of 2 ml membrane portions were stored at −80° C. With each new membrane batch the dissociation constant (Kd) was determined via a saturation curve. […] Nonspecific binding was defined as the amount of ^3[H]-(S)-4-[(ethyl-phenyl-amino)-methyl]-4,5-dihydro-oxazol-2-ylamine bound in the presence of 10 μM unlabeled ligand. All compounds were tested at a broad range of concentrations (10 pM to 10 μM) in duplicates. […] The 96 deep well plates were incubated for 1 hr at 4° C. Incubations were terminated by rapid filtration through Unifilter-96 plates (Packard Instrument Company) and glass filters GF/C (Perkin Elmer) presoaked for 1 hr in polyethylenimine (0.3%) and washed 3 times with 1 ml of cold binding buffer. After addition of 45 μl of Microscint 40 (PerkinElmer) the Unifilter-96 plate was sealed and after 1 hr the radioactivity counted using a TopCount Microplate Scintillation Counter (Packard Instrument Company).

rat TAAR1 = rat TAAR1 (Rattus norvegicus (Rat), UniProt Q923Y9); assay: Radioligand binding assay on rat TAAR1; settings: for Ki: rat TAAR1, HEK-293 membranes, second value of the mouse/rat pair
Description: as §1, §2, §3, §4
Radioligand Binding Assay on Rat TAAR1
as §5
as §6, with “rat” for “mouse”, “[H]-(S)-4-[(ethyl-phenyl-amino)-methyl]-4,5-dihydro-oxazol-2-ylamine” for “^3[H]-(S)-4-[(ethyl-phenyl-amino)-methyl]-4,5-dihydro-oxazol-2-ylamine”, “[…]” for “pM”

Chain of rat TAAR1 (Q923Y9 whole entry): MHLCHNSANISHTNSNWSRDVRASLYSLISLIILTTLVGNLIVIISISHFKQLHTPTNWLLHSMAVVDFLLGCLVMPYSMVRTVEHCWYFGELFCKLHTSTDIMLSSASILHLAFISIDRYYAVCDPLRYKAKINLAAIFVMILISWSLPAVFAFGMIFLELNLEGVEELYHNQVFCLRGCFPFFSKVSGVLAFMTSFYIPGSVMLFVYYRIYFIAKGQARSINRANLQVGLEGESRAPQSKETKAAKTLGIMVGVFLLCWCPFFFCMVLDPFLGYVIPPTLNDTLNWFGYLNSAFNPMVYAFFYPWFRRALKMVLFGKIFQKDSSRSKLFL
Chain of mouse TAAR1 (Q923Y8 whole entry): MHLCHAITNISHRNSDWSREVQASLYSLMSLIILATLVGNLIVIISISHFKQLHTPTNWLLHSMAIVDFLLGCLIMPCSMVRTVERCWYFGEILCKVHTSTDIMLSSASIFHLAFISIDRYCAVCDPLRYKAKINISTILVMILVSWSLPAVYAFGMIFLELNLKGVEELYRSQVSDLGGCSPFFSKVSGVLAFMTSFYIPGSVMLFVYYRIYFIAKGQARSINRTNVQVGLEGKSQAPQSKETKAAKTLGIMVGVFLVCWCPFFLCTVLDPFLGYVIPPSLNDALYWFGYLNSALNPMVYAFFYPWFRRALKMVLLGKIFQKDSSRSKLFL

| SMILES | Ki (mouse TAAR1) [µM] | Ki (rat TAAR1) [µM] | Kd (mouse TAAR1; mouse TAAR1 membranes, saturation curve, usual value, read-out: dissociation constant (Kd) of the radioligand) [nM] | Kd (rat TAAR1; rat TAAR1 membranes, saturation curve, usual value, read-out: dissociation constant (Kd) of the radioligand) [nM] |
| --- | --- | --- | --- | --- |
| Cc1cc(Nc2ccc3c(c2)CCN2CCNC[C@@H]32)nc(C)n1 [Example 23, (11bR)-N-(2,6-dimethylpyrimidin-4-yl)-2,3,4,6,7,11b-hexahydro-1H-pyrazino[2,1-a]isoquinolin-9-amine] | 0.165 | 0.457 |  |  |
| O=C(Nc1ccc(Cl)cc1)c1ccc2c(c1)CCN1CCNC[C@@H]21 [Example 44, (11bR)-N-(4-chlorophenyl)-2,3,4,6,7,11b-hexahydro-1H-pyrazino[2,1-a]isoquinoline-9-carboxamide] | 0.0161 | 0.274 |  |  |
| O=C(Nc1cc2c(cc1F)[C@@H]1CNCCN1CC2)c1ccnc(C(F)(F)F)c1 [Example 16, N-[(11bR)-10-fluoro-2,3,4,6,7,11b-hexahydro-1H-pyrazino[2,1-a]isoquinolin-9-yl]-2-(trifluoromethyl)pyridine-4-carboxamide] | 0.175 | 1.5 |  |  |
| O=C(Nc1ccc(Cl)nc1)c1ccc2c(c1)CCN1CCNC[C@@H]21 [Example 42, (11bR)-N-(6-chloro-3-pyridyl)-2,3,4,6,7,11b-hexahydro-1H-pyrazino[2,1-a]isoquinoline-9-carboxamide] | 0.0395 | 0.682 |  |  |
| Cc1cc(C(=O)Nc2ccc3c(c2)CCN2CCNC[C@@H]32)nc(C(F)(F)F)n1 [Example 38, (R)-N-(2,3,4,6,7,11b-hexahydro-1H-pyrazino[2,1-a]isoquinolin-9-yl)-6-methyl-2-(trifluoromethyl)pyrimidine-4-carboxamide] | 0.222 | 0.157 |  |  |
| c1cnc(Nc2ccc3c(c2)CCN2CCNC[C@@H]32)nc1 [Example 22, (11bR)-N-pyrimidin-2-yl-2,3,4,6,7,11b-hexahydro-1H-pyrazino[2,1-a]isoquinolin-9-amine] | 0.537 | 3.92 |  |  |
| FC(F)(F)c1cnc(Nc2ccc3c(c2)CCN2CCNC[C@@H]32)cn1 [Example 7, (11bR)-N-[5-(trifluoromethyl)pyrazin-2-yl]-2,3,4,6,7,11b-hexahydro-1H-pyrazino[2,1-a]isoquinolin-9-amine] | 0.0329 | 0.0356 |  |  |
| Fc1cccc2c1CCN1CCNC[C@@H]21 [Example 30, (11bR)-8-fluoro-2,3,4,6,7,11b-hexahydro-1H-pyrazino[2,1-a]isoquinoline] | 0.176 | 0.201 |  |  |
| Fc1c(Nc2cc(Cl)nc(C(F)(F)F)n2)ccc2c1CCN1CCNC[C@H]21 [Example 31, (11bS)-N-[6-chloro-2-(trifluoromethyl)pyrimidin-4-yl]-8-fluoro-2,3,4,6,7,11b-hexahydro-1H-pyrazino[2,1-a]isoquinolin-9-amine] | 0.835 | 1.73 |  |  |
| c1cc2c(cc1Nc1ncc(C3CC3)cn1)CCN1CCNC[C@@H]21 [Example 14, (11bR)-N-(5-cyclopropylpyrimidin-2-yl)-2,3,4,6,7,11b-hexahydro-1H-pyrazino[2,1-a]isoquinolin-9-amine] | 0.0066 | 0.0192 |  |  |
| CCN(C[C@H]1COC(N)=N1)c1ccccc1 [^3[H]-(S)-4-[(ethyl-phenyl-amino)-methyl]-4,5-dihydro-oxazol-2-ylamine, reference compound] |  |  | ~0.7 | ~2.3 |
| Fc1c(Nc2ncc(C3CC3)cn2)ccc2c1CCN1CCNC[C@@H]21 [Example 33, (11bR)-N-(5-cyclopropylpyrimidin-2-yl)-8-fluoro-2,3,4,6,7,11b-hexahydro-1H-pyrazino[2,1-a]isoquinolin-9-amine] | 0.0677 | 0.105 |  |  |
| FC(F)(F)COc1cnc(Nc2ccc3c(c2)CCN2CCNC[C@@H]32)nc1 [Example 13, (R)-N-(5-(2,2,2-trifluoroethoxy)pyrimidin-2-yl)-2,3,4,6,7,11b-hexahydro-1H-pyrazino[2,1-a]isoquinolin-9-amine] | 0.0078 | 0.0119 |  |  |
| O=C(Nc1ccc2c(c1)CCN1CCNC[C@@H]21)c1ccc(Cl)cc1 [Example 3, N-[(11bR)-2,3,4,6,7,11b-hexahydro-1H-pyrazino[2,1-a]isoquinolin-9-yl]-4-chloro-benzamide] | 0.0096 | 0.0562 |  |  |
| COc1ccc(NC(=O)c2ccc3c(c2)CCN2CCNC[C@@H]32)cn1 [Example 45, (11bR)-N-(6-methoxy-3-pyridyl)-2,3,4,6,7,11b-hexahydro-1H-pyrazino[2,1-a]isoquinoline-9-carboxamide] | 0.299 | > 1.5 |  |  |
| Cc1cc(Nc2ccc3c(c2)CCN2CCNC[C@@H]32)nc(C(F)(F)F)n1 [Example 20, (11bR)-N-[6-methyl-2-(trifluoromethyl)pyrimidin-4-yl]-2,3,4,6,7,11b-hexahydro-1H-pyrazino[2,1-a]isoquinolin-9-amine] | 0.0364 | 0.0112 |  |  |
| FC(F)(F)c1cnc(Nc2ccc3c(c2)CCN2CCNC[C@@H]32)nc1 [Example 6, (11bR)-N-[5-(trifluoromethyl)pyrimidin-2-yl]-2,3,4,6,7,11b-hexahydro-1H-pyrazino[2,1-a]isoquinolin-9-amine] | 0.0374 | 0.0195 |  |  |
| CCc1n[nH]c(C(=O)Nc2ccc3c(c2)CCN2CCNC[C@@H]32)c1C [Example 41, (R)-3-ethyl-N-(2,3,4,6,7,11b-hexahydro-1H-pyrazino[2,1-a]isoquinolin-9-yl)-4-methyl-1H-pyrazole-5-carboxamide] | 0.145 | 0.288 |  |  |
| Cc1nsc(Nc2ccc3c(c2)CCN2CCNC[C@@H]32)n1 [Example 40, (R)-N-(2,3,4,6,7,11b-hexahydro-1H-pyrazino[2,1-a]isoquinolin-9-yl)-3-methyl-1,2,4-thiadiazol-5-amine] | 0.202 | 0.826 |  |  |
| O=C(NCc1cccc(C(F)(F)F)c1)c1ccc2c(c1)CCN1CCNC[C@@H]21 [Example 43, (11bR)-N-[[3-(trifluoromethyl)phenyl]methyl]-2,3,4,6,7,11b-hexahydro-1H-pyrazino[2,1-a]isoquinoline-9-carboxamide] | 0.0301 | 0.137 |  |  |
| Fc1cc2c(cc1Nc1ncc(C(F)(F)F)cn1)CCN1CCNC[C@@H]21 [Example 17, (11bR)-10-fluoro-N-[5-(trifluoromethyl)pyrimidin-2-yl]-2,3,4,6,7,11b-hexahydro-1H-pyrazino[2,1-a]isoquinolin-9-amine] | 0.261 | 0.623 |  |  |
